# Source: patent US11267861B2, “Peptide-oligourea foldamer compounds and methods of their use” (UREKA SARL, priority 2016, dated 2022)
# Numbered stars: 1 amine (or outer) side, 2 acyl side, 3 side chain; on linkers, the order of the positions; unused ones are H or OH. Peptide text beside a SMILES is read from it. * marks the point of attachment. X3 = O=C(O)[C@@H]1CCCN1C(=O)NC[C@H](CO)N*; X5 = C[C@@H](O)[C@H](N)CN*; CO = O=C([*:1])[*:2]
# How the values were obtained:
# mouse GLP-1 receptor = target: T1, mouse GLP-1 receptor (Mus musculus, UniProt O35659); assay: GLP-1 functional assay: agonist activity by cAMP production (HTRF) in βTC6 cells; format: cell-based
# T1 construct: mouse GLP-1 receptor endogenously expressed in βTC6 cells; endogenous in cells; host or cells: βTC6 cells
# T1 sequence (O35659 22-463): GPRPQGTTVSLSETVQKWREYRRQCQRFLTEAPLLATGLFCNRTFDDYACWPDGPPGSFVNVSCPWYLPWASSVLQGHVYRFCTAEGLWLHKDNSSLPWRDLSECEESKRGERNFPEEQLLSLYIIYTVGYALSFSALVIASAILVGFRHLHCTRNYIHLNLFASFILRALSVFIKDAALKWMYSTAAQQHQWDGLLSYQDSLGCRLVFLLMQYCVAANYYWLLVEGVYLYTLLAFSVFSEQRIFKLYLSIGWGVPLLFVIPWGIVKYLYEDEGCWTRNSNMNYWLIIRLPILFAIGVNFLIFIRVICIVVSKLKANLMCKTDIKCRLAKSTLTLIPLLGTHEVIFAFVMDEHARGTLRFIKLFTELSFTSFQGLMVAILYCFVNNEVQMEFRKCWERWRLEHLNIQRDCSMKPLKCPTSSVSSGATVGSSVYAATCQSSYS
# Protocol: For stimulated control measurement, separate assay wells contain 10 nM GLP-1(7-37) were utilized.
# Following incubation, the cells were lysed and the fluorescence acceptor (D2-labeled cAMP) and fluorescence donor (anti-cAMP antibody labeled with europium cryptate) were added. […] The results are expressed as a percent of the control response to 10 nM GLP-1(7-37). The standard reference agonist is GLP-1(7-37), which was tested in each experiment at several concentrations to generate a concentration-response curve from which its EC50 value was calculated.
# (§1) HTRF (Homogeneous Time-Resolved Fluorescence) principle. The HTRF technology is based on time resolved fluorescence energy transfer (TR-FRET), which occurs between long-lived fluorophore Europium or Terbium Cryptates, and EuK or Tb respectively, as a donor and the allophycocyanin XL665, d2 or Red as acceptor. Many compounds and proteins present in biological fluids or serum are naturally fluorescent, and the use of conventional, prompt fluorescence leads to serious limitations in assay sensitivity. The use of long-lived fluorophore combined with time-resolved detection (a delay between excitation and emission detection) minimizes prompt fluorescence interference.
# chymotrypsin = assay: Enzymatic degradation by chymotrypsin; format: in vitro ADME; conditions: compared to native peptide GLP-1 (SEQ ID NO: 1)
# Protocol: Enzymatic Degradation—Chymotrypsin and Trypsin. Stock solutions of the compounds were prepared at a concentration of 400 μM in a solution of 50 mM HEPES buffer, 50 mM NaCl, 0.05% Tween-80, pH 8.0. Stock solution of the chymotrypsin or trypsin was prepared at a concentration of 250 μg/mL in water. Stability of compounds to chymotrypsin was assessed by conducting a protease reaction in a 96-well plates at room temperature. Each well received 10 μL of HEPES buffer, 38 μL of the solution of compound to be assayed (final concentration 304 μmol/L), and 2 μL of the enzyme solution (final concentration 10 μg/mL) for a total volume of 50 μL. Each compound was also incubated in the absence of the enzyme (12 μL of HEPES buffer and 38 μL of the compound).
# At the indicated time (5, 10, 15, 30 and 60 minute(s)) a 10 μL aliquot was removed from each experimental reaction and pipet into 100 μL of 1% TFA solution to quench the reaction (t=0 minutes was determined using the reaction without enzyme). A portion of the quenched reaction solution was analyzed by HPLC. The time course of peptide degradation was determined by integrating the area of each peak in a series of HPLC traces. Another portion of the quenched reaction was analyzed by LC-MS for identification of each peptide fragment.
# [1] = target: T2, Carboxypeptidase A (EC 3.4.17.1) (Bos taurus, UniProt P00730); assay: Enzymatic degradation by carboxypeptidase A; format: in vitro ADME, bovine; conditions: same results = more stable than the native peptides
# T2 construct: from bovine pancreas (Fluka), milky suspension; purchased Fluka; host or cells: bovine pancreas
# T2 sequence (P00730 111-419): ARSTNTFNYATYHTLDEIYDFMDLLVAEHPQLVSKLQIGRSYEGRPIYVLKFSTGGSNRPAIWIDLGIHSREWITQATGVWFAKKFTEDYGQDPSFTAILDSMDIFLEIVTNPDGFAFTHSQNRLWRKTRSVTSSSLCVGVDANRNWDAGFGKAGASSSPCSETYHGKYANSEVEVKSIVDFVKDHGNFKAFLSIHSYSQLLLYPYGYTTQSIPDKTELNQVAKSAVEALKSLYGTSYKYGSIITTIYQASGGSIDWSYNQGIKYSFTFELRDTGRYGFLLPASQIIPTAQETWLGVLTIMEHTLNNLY
# Protocol: Enzymatic Degradation—Carboxypeptidase A. Carboxypeptidase A (EC 3.4.17.1) from bovine pancreas (Fluka), milky suspension, stock solution in PBS buffer (pH 7.5, 0.01 M). For each degradation experiment, stock solutions of the peptidic substrate and the enzyme were made using phosphate-buffered saline (PBS) buffer solution. The enzyme concentrations of the stock solutions were selected such that the standard substrates were totally degraded after a maximum of 15 min (ratio 2[enzyme]:100[substrate]). PBS buffer solution (10 mM sodium phosphate, 0.14 M NaCl) was prepared as follows: Solution A (4.75 mL of 0.2 M NaH2PO4.H2O), solution B (20.25 mL of 0.2 M Na2HPO4.H2O), NaCl (4.5 g) and H2O (25 mL) were stirred for 15 min at room temperature and diluted tenfold with H2O. The pH was adjusted either with NaOH (1 M) or with HCl (1 M) prior to use. A solution of the substrate in PBS buffer (pH 7.5, 0.01 M) and a solution of the required amount of enzyme, were mixed and incubated at 25° C. for 4 hours. Degradation was stopped with concentrated AcOH, and buffer solution was added so that the total volume reached 150 μL.
# The resulting mixture was analyzed by reversed-phase HPLC. A mixture of CH3CN/H2O (0.1% TFA) was used as eluent. Gradients were 10% CH3CN to 100% CH3CN in 10 minutes. The flow rate, for all separations, was 1 mL·min^−1.
# MDM2 = target: T3, MDM2 (Homo sapiens, UniProt Q00987); assay: MDM2/p53 interaction HTRF assay; format: biochemical
# T3 construct: GST-Flag-Mdm2 (AA1-188; GI:4505136)
# Protocol: (§2) Functional Assay to Examine Bioactivity of MDM2 and MDMX Antagonists. The compounds were received dissolved in 100% DMSO at a final concentration of 10 mM and frozen. After complete defrosting and sonication, all compounds were diluted in 100% DMSO at both 0.4 mM, 0.04 and 0.004 mM, and distributed into two 96-well compounds daughter plates (Table 2).
# (§3) Each compound was evaluated in duplicate on both (MDM2 or MDMX)/p53 interaction and on a positive TR-FRET control protein in a 384-well reaction plate. […] The reference compound Nutlin-3 is integrated in the compound daughter plate and was used under the same conditions.
# as §1, with “interference. […]” for “interference.”
# MDMX = target: T4, MDMX (Homo sapiens, UniProt O15151); assay: MDMX/p53 interaction HTRF assay; format: biochemical
# T4 construct: GI:88702790)
# T4 sequence (O15151 1-174): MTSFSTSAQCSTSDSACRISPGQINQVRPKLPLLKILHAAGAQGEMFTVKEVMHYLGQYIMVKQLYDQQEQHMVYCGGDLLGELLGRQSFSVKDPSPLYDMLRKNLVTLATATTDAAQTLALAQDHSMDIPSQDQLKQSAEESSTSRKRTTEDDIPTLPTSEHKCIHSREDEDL
# Protocol: as §2, §3
# as §1, with “interference. […]” for “interference.”
# T3 sequence (Q00987 1-188): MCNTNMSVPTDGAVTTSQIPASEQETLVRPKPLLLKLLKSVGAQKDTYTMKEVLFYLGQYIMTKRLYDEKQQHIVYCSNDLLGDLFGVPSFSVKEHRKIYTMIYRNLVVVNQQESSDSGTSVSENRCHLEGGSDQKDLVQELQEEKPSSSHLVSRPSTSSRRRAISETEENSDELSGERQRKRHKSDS
Structure (SMILES),EC50 (mouse GLP-1 receptor),half-life in the chymotrypsin degradation test compared to native peptide (chymotrypsin),stability with carboxipeptidase A compared to native peptides [1],EC50 (MDM2),EC50 (MDMX)
CC[C@H](C)[C@H](NC(=O)[C@H](Cc1ccccc1)NC(=O)[C@H](CCC(=O)O)NC(=O)[C@H](CCCCN)NC(=O)[C@H](C)NC(=O)[C@H](C)NC(=O)[C@H](CCC(N)=O)NC(=O)CNC(=O)[C@H](CCC(=O)O)NC(=O)[C@H](CC(C)C)NC(=O)[C@H](Cc1ccc(O)cc1)NC(=O)[C@H](CO)NC(=O)[C@H](CO)NC(=O)[C@@H](NC(=O)[C@H](CC(=O)O)NC(=O)[C@H](CO)NC(=O)[C@@H](NC(=O)[C@H](Cc1ccccc1)NC(=O)[C@@H](NC(=O)CNC(=O)[C@H](CCC(=O)O)NC(=O)[C@H](C)NC(=O)[C@@H](N)Cc1c[nH]cn1)[C@@H](C)O)[C@@H](C)O)C(C)C)C(=O)N[C@@H](C)C(=O)N[C@H](CNC(=O)N[C@@H](CC(C)C)C(=O)N[C@H](C(=O)N[C@@H](CCCCN)C(=O)NCC(=O)N[C@@H](CCCNC(=N)N)C(=O)NCC(=O)O)C(C)C)Cc1c[nH]c2ccccc12 [Compound 4],260 pM,longer half-life,same results,,
CC(C)C[C@H](NC(=O)[C@H](C)NC(=O)[C@H](Cc1c[nH]c2ccccc12)NC(=O)[C@H](Cc1ccc(O)cc1)NC(=O)[C@H](CCC(=O)O)NC(=O)[C@H](C)NC(=O)[C@H](Cc1ccccc1)NC(=O)[C@H](CO)NC(=O)NC[C@@H](N)[C@@H](C)O)C(=O)N[C@@H](CC(C)C)C(=O)N[C@@H](CO)CNC(=O)N1CCC[C@H]1C(=O)O [Compound 23] ({X5-CO}-SFAEYWALL-X3; N-terminus and C-terminus assumed),,,,750 pM,6300 pM
